In patent publication US20170094972A1, “Compounds and Compositions Having Knock-Down Activity Against Insect Pests” (priority 2015, published 2017):

What follows are compounds tested on Anopheles stephensi (assay: 6 well plate test, knockdown after 1 hour and mortality after 24 and 48 hours). Settings: Table B4; 12.5 ppm alone.
Type: in vivo
Design: KD: unit not given here
Description: The individual wells of six (6) well tissue culture plates were treated with […] of an ethanol solution containing a test compound at a defined concentration. Once the deposits were dry, ten non-blood fed adult female Anopheles stephensi (between two to five day old) were added to each well, and sustained with a 10% sucrose solution in a cotton wool plug. Assessment of the knockdown after 1 hour (Tables B1-B10), and mortality after 24 and 48 hours (Tables B1-B4) was carried out.
(§1) In case of multiple tests, the mean value is reported.
COC(=O)N(C(=O)N1CO[C@@]2(C(=O)OC)Cc3cc(Cl)ccc3C2=N1)c1ccc(OC(F)(F)F)cc1 [Indoxacarb] was tested, and the 24 hr mort was 0.0 and the 48 hr mort was 0.0.

Same assay, conditions: Table B4; 12.5 ppm alone; after 1 hour
Work on COC(=O)N(C(=O)N1CO[C@@]2(C(=O)OC)Cc3cc(Cl)ccc3C2=N1)c1ccc(OC(F)(F)F)cc1 [Indoxacarb] yielded a KD of 0.0.

Same assay, conditions: Table B4; 25 ppm alone
COC(=O)N(C(=O)N1CO[C@@]2(C(=O)OC)Cc3cc(Cl)ccc3C2=N1)c1ccc(OC(F)(F)F)cc1 [Indoxacarb] was tested, and the 24 hr mort was 0.0 and the 48 hr mort was 0.0.

Same assay, conditions: Table B4; 25 ppm alone; after 1 hour
With COC(=O)N(C(=O)N1CO[C@@]2(C(=O)OC)Cc3cc(Cl)ccc3C2=N1)c1ccc(OC(F)(F)F)cc1 [Indoxacarb] the KD was 0.0.

Same assay, conditions: Table B4; 50 ppm alone
Work on COC(=O)N(C(=O)N1CO[C@@]2(C(=O)OC)Cc3cc(Cl)ccc3C2=N1)c1ccc(OC(F)(F)F)cc1 [Indoxacarb] yielded a 24 hr mort of 0.0 and a 48 hr mort of 0.0.

Same assay, conditions: Table B4; 50 ppm alone; after 1 hour
With COC(=O)N(C(=O)N1CO[C@@]2(C(=O)OC)Cc3cc(Cl)ccc3C2=N1)c1ccc(OC(F)(F)F)cc1 [Indoxacarb] the KD was 0.0.

Same assay, conditions: Table B4; 100 ppm alone
In the case of COC(=O)N(C(=O)N1CO[C@@]2(C(=O)OC)Cc3cc(Cl)ccc3C2=N1)c1ccc(OC(F)(F)F)cc1 [Indoxacarb], the 24 hr mort is reported as 0.0 and the 48 hr mort is reported as 0.0.

Same assay, conditions: Table B4; 100 ppm alone; after 1 hour
COC(=O)N(C(=O)N1CO[C@@]2(C(=O)OC)Cc3cc(Cl)ccc3C2=N1)c1ccc(OC(F)(F)F)cc1 [Indoxacarb] gave a KD of 0.0.

Same assay, conditions: Table B6; 0.03125 ppm
In the case of CC1(C)[C@H](C(=O)O[C@H](C#N)c2cccc(Oc3ccccc3)c2)[C@@H]1C=C(Br)Br [Deltamethrin, reference compound], the “knockdown after 1 hour, Alone” value is reported as 20.

Same assay, conditions: Table B6; 0.0625 ppm
In the case of CC1(C)[C@H](C(=O)O[C@H](C#N)c2cccc(Oc3ccccc3)c2)[C@@H]1C=C(Br)Br [Deltamethrin, reference compound], the “knockdown after 1 hour, Alone” value is reported as 40.

Same assay, conditions: Table B6; 0.125 ppm
In the case of CC1(C)[C@H](C(=O)O[C@H](C#N)c2cccc(Oc3ccccc3)c2)[C@@H]1C=C(Br)Br [Deltamethrin, reference compound], the “knockdown after 1 hour, Alone” value is reported as 40.

Same assay, conditions: Table B6; 0.25 ppm
For CC1(C)[C@H](C(=O)O[C@H](C#N)c2cccc(Oc3ccccc3)c2)[C@@H]1C=C(Br)Br [Deltamethrin, reference compound], the “knockdown after 1 hour, Alone” value was 100.

Same assay, conditions: Table B6; 0.5 ppm
CC1(C)[C@H](C(=O)O[C@H](C#N)c2cccc(Oc3ccccc3)c2)[C@@H]1C=C(Br)Br [Deltamethrin, reference compound] was tested, and the “knockdown after 1 hour, Alone” value was 100.

Same assay, conditions: Table B6; 1 ppm
CC1(C)[C@H](C(=O)O[C@H](C#N)c2cccc(Oc3ccccc3)c2)[C@@H]1C=C(Br)Br [Deltamethrin, reference compound] was tested, and the “knockdown after 1 hour, Alone” value was 100.

Same assay, conditions: Table B7; 25 ppm
COC(=O)N(C(=O)N1CO[C@@]2(C(=O)OC)Cc3cc(Cl)ccc3C2=N1)c1ccc(OC(F)(F)F)cc1 [Indoxacarb] was tested, and the “knockdown after 1 hour, Alone” value was 0.

Same assay, conditions: Table B7; 50 ppm
For COC(=O)N(C(=O)N1CO[C@@]2(C(=O)OC)Cc3cc(Cl)ccc3C2=N1)c1ccc(OC(F)(F)F)cc1 [Indoxacarb], the “knockdown after 1 hour, Alone” value was 0.

Same assay, conditions: Table B7; 100 ppm
COC(=O)N(C(=O)N1CO[C@@]2(C(=O)OC)Cc3cc(Cl)ccc3C2=N1)c1ccc(OC(F)(F)F)cc1 [Indoxacarb] was tested, and the “knockdown after 1 hour, Alone” value was 0.

Same assay, conditions: Table B7; 200 ppm
COC(=O)N(C(=O)N1CO[C@@]2(C(=O)OC)Cc3cc(Cl)ccc3C2=N1)c1ccc(OC(F)(F)F)cc1 [Indoxacarb] was tested, and the “knockdown after 1 hour, Alone” value was 0.

These compounds were tested on adult female mosquitoes (assay: Bottle assay based on CDC bottle assay). Settings: Table B15; rates not given.
Type: in vivo
Description: Based on the “CDC bottle assay” (described at http://www.cdc.gov/malaria/resources/pdf/fsp/ir_manual/ir_cdc_bioassay_en.pdf) 1 ml of ethanol containing a test compound at a defined concentration was added to a 250 ml glass bottle and the bottles were placed on a rolling table to coat the inner surfaces as the solvent evaporated. Once dry, twenty five non-blood fed adult female mosquitoes of the appropriate species and strains (each three day old) were aspirated from the stock culture and gently blown into the exposure bottles. The lid of the bottle was replaced and the bottle placed upright out of direct sun light under standard culture conditions, nominally 28° C. and 60-80% relative humidity.
A stopwatch was started, and the assessment of the knock-down were made after 15 mins and 60 minutes. A mosquito was said to be knocked down if it was unable to stand, following the CDC definition. The bottles were replaced in an upright position when not being assessed.
After one hour the mosquitoes were carefully removed from the bottle with an aspirator and placed in a recovery cup. The mosquitoes were supplied with a 10% sucrose solution on a cotton wool bung, and stored under culture conditions. Assessments of the mortality were made after 24 hours and 48 hours (B15).
Each treatment was replicated a minimum of four times, with the mean knockdown or mortality recorded. In each study, a set of bottles was infested with a known insecticide susceptible strain of mosquitoes from the same genera as the resistant strains.
With N#CCNC(=O)c1cnccc1C(F)(F)F [Flonicamid] the “24 hour % mort” value was 0%, the “48 hour % mort” value was 0% and the “% 1 hour KD” value was 0%.

These compounds were tested on female mosquitoes (assay: Tunnel study based on WHOPES tunnel tests with Hemotek membrane feeding device). Settings: 24 h, Table B13; 5 mg/m2.
Type: in vivo
Description: Based on the “WHOPES tunnel tests” (described at http://apps.who.int/iris/bitstream/10665/80270/1/9789241505277_eng.pdf), except that live guniea pig baits were replaced with a Hemotek membrane feeding device, filled with blood and kept constant at 37° C. to mimic a human host. All tests were done under standardised laboratory controlled conditions (27° C.+2° C. under subdued light). The tunnel apparatus was a 60×30×30 cm glass case open at each end and the floor was lined with wet blue roll in order to maintain humidity. A 30×30×30 cm cage, covered in untreated netting, was placed at the release end. The test nets were cut to 25×25 cm squares and fitted into cardboard frames that allow a 20×20 cm area to be exposed. Nine holes, 1 cm in diameter, were made in the netting in the pattern specified in the WHOPES test. The frames were then fitted into the tunnel one third of the way down its length. A Hemotek device, filled with blood and kept constant at 37° C. to mimic a human host, was placed in the smaller area of the glass tunnel behind the test netting, and the end of the tunnel closed with a netting screen. A human sat at the Hemotek end of the tunnels for the duration of the test. At the start of the test (13.30-14.00), 100 female mosquitoes (non-blood fed, aged 5-8 days) were introduced into the cage. Mosquitoes are free to fly in the tunnel but have to make contact with the piece of netting and locate the holes in it before passing through to reach the bait. After 7 hours (20.30-21.00) the mosquitoes were counted in each section of the tunnel. The number of mosquitoes knocked down and blood fed were recorded. Blood-feeding inhibition was assessed by comparing the proportion of blood-fed females (alive or dead) in treated and control tests. Four tunnels were run simultaneously each day, with one control containing untreated netting included with all runs. Three replicates were carried out per treatment.
as §1
With CC1(C)[C@H](C(=O)O[C@H](C#N)c2cccc(Oc3ccccc3)c2)[C@@H]1C=C(Br)Br [Deltamethrin, reference compound] the mortality at 5 mg/m2 was 13%.

Same assay, conditions: Table B12; 5 mg/m2
In the case of CC1(C)[C@H](C(=O)O[C@H](C#N)c2cccc(Oc3ccccc3)c2)[C@@H]1C=C(Br)Br [Deltamethrin, reference compound], the “% 1 hour KD” value is reported as 0%, the “% Blood fed” value is reported as 0% and the “% Through net” value is reported as 0.93%.

Same assay, conditions: Table B13; 5 mg/m2
CC1(C)[C@H](C(=O)O[C@H](C#N)c2cccc(Oc3ccccc3)c2)[C@@H]1C=C(Br)Br [Deltamethrin, reference compound] was tested, and the “% Blood fed” value was 52.77% and the “% Through net” value was 67.6%.

Same assay, conditions: Table B14; 20 mg/m2
For COC(=O)N(C(=O)N1CO[C@@]2(C(=O)OC)Cc3cc(Cl)ccc3C2=N1)c1ccc(OC(F)(F)F)cc1 [Indoxacarb], the “% 24 hour mortality” value was 7.6% and the “% Blood fed” value was 31.4%.
